Columns and labels:
leucocytes and T-cells = details: cited from earlier work
[1] = system: primary lung epithelium cells; test: Cytotoxicity (Alamar blue); format: cell-based, human
Procedure: FIGS. 11A-11B are graphs showing cytotoxicity against primary lung epithelium cells in serum-free condition. Cells were seeded in complete growth medium (Minimal essential medium supplemented with 10% fetal bovine serum) at near-confluence into a 96-well plate and allowed to settle for 24-hours. Media was then replaced to OptiMEM I reduced serum medium containing peptide or vehicle alone (DBPS) and cells were incubated overnight (16 hours). A resazurin based dye (Alamar blue) was added directly to media and conversion of resazurin to resorufin was evaluated following two hours. % Survival represents the proportion of viable cells in peptide treated cells relative to cells treated with vehicle alone. […] Each peptide was tested in triplicate.
FIG. 12 is a graph showing comparison of toxicities against Lung Primary Epithelial cells and Lung Cancerous Epithelial Cells, derived from H358 cell-line. […] Each peptide was tested in triplicate.
Cytotoxicity. Cells were seeded in complete growth medium (Minimal Essential Medium, MEMα, supplemented with 10% Fetal Bovine Serum) into a culture-treated 96-well plate at a density of 25000 cells per well. After 24 hours, culture media was aspirated and replaced with media containing the selected peptide. No-serum experiments were conducted in Opti-MEM I reduced serum media (ThermoFisher, 31985062) and 10% serum experiments were performed in complete growth medium. In all cases, DBPS was used as a vehicle only control and buffer to serially dilute the peptides. After exposure to the peptides or vehicle-alone for the defined period, Alamar blue dye (resazurin) was added directly to the media and allowed to incubate for two hours. Following incubation, A570/A600 measurements were made to calculate reduction of resazurin dye to resorufin. A ratio of reduction in treated versus untreated cells was calculated in order to determine overall cell viability. The human cells were always maintained in a 37° C. incubator under 5% CO2.

B. cereus ATCC 11778 = test: Antimicrobial efficacy (resazurin virtual colony count); format: cell-based, Bacillus cereus; details: DPBS
Procedure: Antimicrobial Studies. The phosphate buffers used for antimicrobial assays were supplemented with non-nitrogenous energy source, 0.1% (w/v) glucose. To conduct antimicrobial assays, bacterial strains were first suspended in respective buffers. E. coli (ATCC 25922) and B. cereus (ATCC 11778) were grown in MHB II up to OD600 nm˜1 and stored as frozen stock in 20% glycerol at −80° C. Occasionally they were thawed and enumerated by serial dilution and spreading on MHB II agar plates. The concentrations of the frozen stocks of E. coli and B. cereus strains were 1.0-1.1*10^8 CFU/mL with OD600 nm˜0.8. In case of other bacterial strains, they were grown on the days of experiment up to OD600 nm˜1-1.5 and then adjusted to OD600 nm˜0.8. The growth media of the drug-resistant bacterial strains were supplemented with few of the respective antibiotics against which they are resistant. […]
(§1) Antimicrobial assays in different phosphate buffers and serum were conducted by adapting, with necessary modifications a fast high-throughput method based on Virtual Colony Count technique and later modified by incorporating the use of resazurin. At first serial dilution of a microbial strain in respective buffer was poured in the wells of 96 well polypropylene microplate and was then added with same volume of 2× MHB II supplemented with 80 μg/mL resazurin and incubated at 35° C. in a Gemini EM Microplate Reader (Molecular Devices) overnight with intermittent shaking. As the microbe grows it reduces non-fluorescent resazurin to fluorescent resorufin and the fluorescent intensity of each well were measured (excitation=570 nm, emission=590 nm) each 5 min for 15 hours. The time (t, min) to reach a certain fluorescence (RFU=20000 with respect to the starting fluorescence) was correlated with the initial bacterial concentration (in CFU/mL) in the particular well to obtain a calibration plot of the form: Log([Bacteria],CFU/mL)=b+m*t Equation 4: […]

[2] = system: E. coli ML35p outer membrane; test: NPN assay, outer membrane perturbation; format: cell-based, Escherichia coli; details: PBS; 25 μM peptide; 25 μM PMB = 100%
Procedure: (§2) Interactions with Bacterial Membranes. Interaction of the peptides with bacterial membranes in different phosphate buffers were evaluated using E. coli ML35p, constructed in our laboratory. At first, competent cells of E. coli ML35 were produced by conventional competent cell preparation method, then transformed with pBR322 plasmid. Transformed colonies were selected after growing on Luria-agar containing 50 μg/mL ampicillin. A single transformed colony was grown in presence of ampicillin first in Luria broth and then in MHBII and stored as 20% glycerol stock at −80° C. This frozen stock, on the day of the experiment, was thawed and grown in MHBII containing ampicillin up to OD600 nm=0.8-0.9, washed with PBS and then suspended in the respective buffer up to the required OD600 nm for use.
NPN Assay. The outer membrane perturbation of bacteria was evaluated by incubating E. coli ML35p with peptides in presence of NPN. 100 mM NPN in acetone was supplemented proportionately to a bacterial suspension of OD600 nm˜0.5 to achieve a final concentration of 20 μM of NPN and the mixture was equilibrated for 30 mins. Then, 90 μL of the bacterial suspension containing 20 μM NPN was added with 10 μL of 250 μM peptide (10×) solution in water and scanned for fluorescence intensity (excitation=350 nm, emission=420 nm). The % Perturbation was calculated by considering PMB to be causing 100% Perturbation and water (without peptide) as 0% Perturbation. Each peptide was tested in triplicate in each of the three phosphate buffers used.
When peptides partition from the bulk aqueous environment to the cellular membranes, they may cause small defects in the membrane organization, a signature of adsorption of the peptides into the membranes. Such small defects are called membrane perturbations and can be evaluated by utilizing molecular probes. One such molecular probe is NPN, which is a hydrophobic molecule and is usually repelled to enter the hydrophobic interiors of the membrane by the polar headgroups of membrane-lipids. However, when small defects and gaps are caused during the adsorption of the peptides into the membranes, NPN can enter through those defects and in the hydrophobic environment of the membrane interior the molecule fluoresces, which can be measured for quantification of the extent of membrane-perturbation and peptide adsorption in the cellular membrane.

E. coli ATCC 25922 = test: Antimicrobial efficacy (resazurin virtual colony count); format: cell-based, Escherichia coli
Procedure: (§3) Antimicrobial Studies. The phosphate buffers used for antimicrobial assays were supplemented with non-nitrogenous energy source, 0.1% (w/v) glucose. To conduct antimicrobial assays, bacterial strains were first suspended in respective buffers. E. coli (ATCC 25922) and B. cereus (ATCC 11778) were grown in MHB II up to OD600 nm˜1 and stored as frozen stock in 20% glycerol at −80° C. Occasionally they were thawed and enumerated by serial dilution and spreading on MHB II agar plates. The concentrations of the frozen stocks of E. coli and B. cereus strains were 1.0-1.1*10^8 CFU/mL with OD600 nm˜0.8. In case of other bacterial strains, they were grown on the days of experiment up to OD600 nm˜1-1.5 and then adjusted to OD600 nm˜0.8. The growth media of the drug-resistant bacterial strains were supplemented with few of the respective antibiotics against which they are resistant. 200 μL of the 0.8 OD600 nm culture were added to 10 mL of the respective buffer to obtain a suspension which was used to incubate with equal volumes of peptide solution in the same buffer.
as §1
(§4) To obtain antimicrobial efficacy of the peptides, 50 μL of serially diluted peptide in a buffer was incubated with 50 μL microbial suspension in the same buffer for 3 hours in black polypropylene 96 well plate. After incubation the wells were added with 100 μL of 2× MHB II supplemented with 80 μg/mL resazurin and then incubated with continuous fluorescence reading for overnight time period as described earlier. The surviving microbial population (CFU/mL) in each well were calculated by first finding the time to reach a fluorescence of RFU=20000 and the correlation (4) for the specific microbial strain and buffer. % Survival represents the proportion of viable cells in peptide treated cells relative to cells treated with the respective buffer alone. Equation 5: […]
Finally, the antimicrobial effectiveness of each peptide against the particular microbial strain in the specific buffer was determined by plotting % microbial survival as a function of the log of the concentration of the peptide and fitting the resulting data to a variable-slope sigmoidal regression model (equation 6). In this equation, log(EC50) represents the log of the concentration of the peptide required to kill half of the microbial population, where Smin and Smax correspond to the minimal and maximal microbial survival values (respectively), and H, Hill slope, is the parameter defining the steepness of the transition slopes of sigmoidal survival curves. % Microbial survival=Smin+(Smax−Smin)/(1+10^log(EC^50^)-log[peptide]*H) Equation 6: […]
The antimicrobial efficacies of the peptides were first tested against the model Gram-negative bacteria, E. coli ATCC 25922, in different phosphate buffers having varied ionic strengths and compositions. The phosphate buffers that were used included 10 mM sodium phosphate (calculated ionic strength˜25 mM), PBS and DPBS. […]

[3] = system: E. coli ML35p outer membrane; test: Outer membrane disruption (β-lactamase leakage, nitrocefin); format: cell-based, Escherichia coli; details: DPBS; HCMAB = 100%
Procedure: as §2
Membrane Disruptions. The outer and the inner membrane disruptions by the peptides were evaluated by incubating bacterial suspension with peptides and then measuring the activity of enzymes leaked out of the cells. 100 μL of 10× concentration of peptide in water was incubated with 900 μL bacterial suspension (OD600 nm˜0.1) in respective buffer for 3 hours at room temperature with gentle rotation. Then the cells and debris were separated by centrifugation (10000 r.p.m. for 30 mins) and the supernatant was collected and tested for activity of enzymes that had leaked out of the bacterial cells. HCMAB was used as a positive control to cause 100% membrane disruption and water as a negative causing 0% disruption.
The outer membrane disruption was tested by using the activity of beta-lactamase present in the periplasmic space of E. coli ML35p. Peptides when disrupt the outer membrane enough to cause beta-lactamase to come out, the degree of disruption can be measured by the virtue of the kinetics of the enzyme and using a chromogenic cephalosporin substrate called nitrocefin. β-lactamase mediated hydrolyzed product of nitrocefin has an absorbance αmax=486 nm. Supernatant collected from the incubation of peptide with bacteria was added with nitrocefin solution in DPBS and incubated at 35° C. and continuous absorbance readings. The slope of the linear section of the absorbance curve (absorbance vs time), was used as a measure of membrane disruption and the % Disruption was calculated as: Equation 7: […]
Some of the ATRA1-variants were further tested for their ability to disrupt outer and inner membranes to form pores or disruptions sufficiently large so as to allow enzymes to leak out of their cellular compartments (cytoplasm or periplasmic space). For this purpose, two reporter molecules were used with one being the substrate of a cytoplasmic enzyme and the other was a substrate for an enzyme residing in the periplasmic space. One of the reporters, nitrocefin was the substrate for β-lactamase, which is present in the bacterial periplasm, whereas the other molecule, ONPG, was the substrate for β-galactosidase, which resides in the cytoplasm of E. coli ML35p strain. […] Similarly, β-galactosidase activity in the supernatants is evidence of inner membrane disruption and possible pore formation. When the aforesaid supernatants were tested for nitrocefin and ONPG hydrolysis, the corresponding absorbance increased with time (data not shown) indicating β-lactamase and β-galactosidase activity, respectively, and thus disruption of both the inner and outer membranes. The slopes of the increase in absorbance as a function of time provides the rate of enzyme activity. The enzyme activities in supernatants collected after incubation of bacteria with the quaternary ammonium surfactant, hexadecyltrimethylammonium bromide (HCMAB) was used as an internal reference for 100% membrane disruption. Enzyme activity for supernatants collected for cells incubated in the absence of peptide provided a reference for 0% membrane disruption. Bee venom peptide melittin was used as a positive control. […]

Pseudomonas aeruginosa = test: Antimicrobial efficacy against ESKAPE pathogens; format: cell-based; details: mammalian serum
Procedure: as §3, §1, §4
Finally, the antimicrobial effectiveness of each peptide against the particular microbial strain in the specific buffer was determined by plotting % microbial survival as a function of the log of the concentration of the peptide and fitting the resulting data to a variable-slope sigmoidal regression model (equation 6). […]
ATRA1-R3W2-HYD, NA-CATH and PMB were evaluated for their effectiveness in mammalian serum conditions against pathogenic bacteria of both normal and drug-resistant strains. […]

[4] = ~16 hours (overnight), reduced serum conditions

| Compound | concentrations of significant cytotoxicity (leucocytes and T-cells) [µM] | concentration over which toxicity was exhibited ([1]; ~6 hours, 10% fetal bovine serum) [µM] | concentration over which significant toxicity was observed [1, 4] | cytotoxicity, in words [1, 4] | antimicrobial efficacy, in words (B. cereus ATCC 11778) | membrane perturbation with respect to PMB [2] | antimicrobial efficacy, in words (E. coli ATCC 25922; DPBS (with Ca++ and Mg++), pH 7.4) | antimicrobial efficacy, in words (E. coli ATCC 25922; PBS (high / physiologically relevant ionic strength), pH 7.4) | outer membrane disruption (β-lactamase activity) relative to HCMAB [3] | increase of EC50 in presence of albumin relative to EC50 in DPBS (E. coli ATCC 25922; DPBS + 4% (w/v) bovine serum albumin versus DPBS) | antimicrobial efficacy, in words (E. coli ATCC 25922; serum) | antimicrobial effectiveness, in words (Pseudomonas aeruginosa) |
| --- | --- | --- | --- | --- | --- | --- | --- | --- | --- | --- | --- | --- |
| CC[C@H](C)[C@H](NC(=O)[C@H](CCCCN)NC(=O)[C@H](CCC(=O)O)NC(=O)[C@H](CCCCN)NC(=O)[C@H](CO)NC(=O)[C@H](CCCCN)NC(=O)[C@H](CCCNC(=N)N)NC(=O)[C@H](Cc1ccccc1)NC(=O)[C@H](Cc1ccccc1)NC(=O)[C@H](CC(=O)O)NC(=O)CNC(=O)[C@H](CC(C)C)NC(=O)[C@@H](N)CC(C)C)C(=O)NCC(=O)N[C@@H](CCCCN)C(=O)N[C@@H](CCC(=O)O)C(=O)N[C@@H](Cc1ccccc1)C(=O)N[C@@H](CCCCN)C(=O)N[C@@H](CCCNC(=N)N)C(=O)N[C@H](C(=O)N[C@H](C(=O)N[C@@H](CCC(N)=O)C(=O)N[C@@H](CCCNC(=N)N)C(=O)N[C@H](C(=O)N[C@@H](CCCCN)C(=O)N[C@@H](CC(=O)O)C(=O)N[C@@H](Cc1ccccc1)C(=O)N[C@@H](CC(C)C)C(=O)N[C@@H](CCCNC(=N)N)C(=O)N[C@@H](CC(N)=O)C(=O)N[C@@H](CC(C)C)C(=O)N[C@H](C(=O)N1CCC[C@H]1C(=O)N[C@@H](CCCNC(=N)N)C(=O)N[C@H](C(=O)N[C@@H](CCC(=O)O)C(=O)N[C@@H](CO)C(=O)O)[C@@H](C)O)C(C)C)[C@@H](C)CC)C(C)C)[C@@H](C)CC [LL37] | 13 to 25 | > 10 | Over 10 μM | higher degrees of cytotoxicity | – | – | – | – | – | – | – | – |
| KRFKKFFKKFK (SEQ ID NO: 11) [ATRA1-F] | – | – | – | – | somewhat effective | decreased slightly | lost activity in DPBS | more effective than ATRA1 | intermediate | – | – | – |
| Polymyxin B [PMB, reference compound] | – | – | > 6 µM | – | – | – | – | – | – | approximately 3 fold | retained significant antimicrobial activities | effective |

Source: US11447533B2, “Antimicrobial and anticancer peptides and conjugates and compositions, methods, articles and kits relating thereto” (George Mason Research Foundation, Inc., priority 2018, dated 2022)
